Data taken from patent US20150148372A1, “BICYCLIC HETEROCYCLES AS BET PROTEIN INHIBITORS” (Incyte Corporation, priority 2013, published 2015).

Columns and labels:
BRD4-BD2 = target: T1, BRD4-BD2 (Homo sapiens, UniProt O60885); assay: BRD4 AlphaScreen assay, BD2; assay type: binding; conditions: H4Ac4 peptide, 20 nM BRD4-BD2, read-out: BRD4 BD-2 enzyme IC50
T1 construct: 20 nM (BRD4-BD2, BPS Bioscience #31041); purchased BPS Bioscience 31041
Description: (§1) BRD4-BD1 and BRD4-BD2 assays were conducted in white 384-well polystyrene plate in a final volume of 20 μL for BD1 and 40 μL for BD2. Inhibitors were first serially diluted in DMSO and added to the plate wells before the addition of other reaction components. The final concentration of DMSO in the assay was 1.25% (BD1) and 0.83% (BD2). The assays were carried out at room temperature for 75 min. in the assay buffer (50 mM HEPES, pH 7.4, 100 mM NaCl, 0.05% CHAPS, 0.01% BSA), containing 50 nM Biotin-labeled tetra-acetylated histone H4 peptide (H4Ac4), 3.8 nM (BRD4-BD1, BPS Bioscience #31040) or 20 nM (BRD4-BD2, BPS Bioscience #31041). The reaction followed by the addition of 20 μL of assay buffer supplemented with Streptavidin donor beads (PerkinElmer 6760002) and GSH Acceptor beads (PerkinElmer-AL 109C) at 4 μg/mL under reduced light. After plate sealing, the plate was incubated in the dark at room temperature for 75 min. before reading on a PHERAstar FS plate reader (BMG Labtech). IC50 determination was performed by fitting the curve of percent control activity versus the log of the inhibitor concentration using the GraphPad Prism 5.0 software. IC50 data for the Examples is presented in Table 1 as determined by Assay A1.

BRD4-BD1 = target: T2, BRD4-BD1 (Homo sapiens, UniProt O60885); assay: BRD4 AlphaScreen assay, BD1; assay type: binding; conditions: H4Ac4 peptide, 3.8 nM BRD4-BD1, read-out: BRD4 BD-1 enzyme IC50
T2 construct: 3.8 nM (BRD4-BD1, BPS Bioscience #31040); purchased BPS Bioscience 31040
Description: as §1

SMILES | IC50 (BRD4-BD2) | IC50 (BRD4-BD1)
Cn1cc(-c2c(Oc3ccc(F)cc3F)ccc3[nH]c(=O)[nH]c23)c2cc[nH]c2c1=O [Example 1, 5-(2,4-Difluorophenoxy)-4-(6-methyl-7-oxo-6,7-dihydro-H-pyrrolo[2,3-c]pyridin-4-yl)-1,3-dihydro-2H-benzimidazol-2-one] | 100 to 1000 nM | 1000 to 10000 nM
Cn1cc(-c2c(Oc3ccc(F)cc3F)ccc3[nH]cnc23)c2cc[nH]c2c1=O [Example 2, 4-[5-(2,4-Difluorophenoxy)-1H-benzimidazol-4-yl]-6-methyl-1,6-dihydro-7H-pyrrolo[2,3-c]pyridin-7-one] | ≤ 100 nM | 1000 to 10000 nM
